Values of other authors as cited in patent US20260144769A1, “4-PHENYLBUTYRATE RESTORED GABA UPTAKE AND REDUCED SEIZURES IN SLC6A1 VARIANT-MEDIATED DISORDERS” (Vanderbilt University, priority 2022, published 2026).

Settings: SLC6A1 mutation mediated disorders; cited from earlier work

CCCC(CCC)C(=O)O [Valproic acid]
cognition: could not improve cognition | seizure control: control seizures
